How the values were obtained:
[1] = tested on: Madin Darby canine kidney (MDCK) cells; test: Electrical resistance across MDCK cell monolayers; format: cell-based; details: 24 hours; for mean electrical resistance across MDCK cell monolayers: 0.5 mg/ml peptide, relative to the control (medium alone), FIG. 9; for formation of tight junctions in epithelial cells: conclusion from MDCK electrical resistance, 0.5 mg/ml
Description: Yet another assay evaluates the effect of an occludin modulating agent on the electrical resistance across a monolayer of cells. For example, Madin Darby canine kidney (MDCK) cells can be exposed to the modulating agent dissolved in medium (e.g., at a final concentration of 0.5 mg/ml for a period of 24 hours). The effect on electrical resistance can be measured using standard techniques. This assay evaluates the effect of a modulating agent on tight junction formation in epithelial cells. In general, the presence of 500 μg/mL modulating agent should result in a statistically significant increase or decrease in electrical resistance after 24 hours.
Madin Darby canine kidney (MDCK) cells were plated in Millicells (Millipore, Bedford, Mass.), at a density of 300,000 cells per Millicell, and cultured in Dulbecco's Modified Eagle Medium (DMEM; Sigma, St. Louis, Mo.) containing 5% fetal calf serum (Sigma, St. Louis, Mo.). Monolayers were exposed to the modulating agent dissolved in medium at a final concentration of 0.5 mg/ml for a period of 24 hours. The electrical resistance was measured using the EVOM device (World Precision Instruments, Sarasota, Fla.). At the time of measurement, fresh medium, with or without the modulating agent, may be added to the Millicells.

Adult rats = test: Miles assay for vascular permeability (Evans blue); format: in vivo; details: rat
Description: The ability of an agent to modulate cell adhesion may generally be evaluated in vivo by assessing the effect on vascular permeability utilizing the Miles assay (McClure et al., J. Pharmacological & Toxicological Methods 32:49-52, 1994). Briefly, a candidate modulating agent may be dissolved in phosphate buffered saline (PBS) at a concentration of 100 μg/ml. Adult rats may be given 100 μl subdermal injections of each peptide solution into their shaved backs, followed 15 minutes later by a single 250 μl injection of 1% Evans blue dissolved in PBS into their tail veins. The subdermal injection sites may be visually monitored for the appearance of blue dye. Once the dye appears (about 15 minutes after injection), each subdermal injection site may be excised, weighed, and placed in 1 ml dimethylformamide for 24 hours to extract the dye. The optical density of the dye extracts may then be determined at 620 nm. In general, the injection of 0.1 ml of modulating agent (at a concentration of 0.1 mg/ml) into the backs of rats causes an increase of dye accumulation at the injection sites of at least 50%, as compared to dye accumulation at sites into which PBS has been injected.
The ability of cyclic and linear peptides to increase vascular permeability was assessed utilizing the Miles assay (McClure et al., J. Pharmacological & Toxicological Meth. 32:49-521994). The peptides were dissolved in phosphate buffered saline (PBS) at a concentration of 100 μg/ml. Adult rats were given 100 μl subdermal injections of each peptide solution into their shaved backs, followed 15 minutes later by a single 250 μl injection of 1% Evans blue dissolved in PBS into their tail veins. The subdermal injection sites were visually monitored for the appearance of blue dye. Once the dye appeared (15 minutes after injection), each subdermal injection site was excised, weighed, and placed in 1 ml dimethylformamide for 24 hours to extract the dye. The optical density of the dye extracts was determined at 620 nm. […]

[2] = tested on: Human aortic endothelial cells (HAEC); test: Endothelial cell adhesion assay: occludin and VE-cadherin immunolocalization in HAEC monolayers; format: cell-based; details: 1 hour
Source text: The effect of a modulating agent on endothelial cell adhesion may generally be evaluated using immunolocalization techniques. Human aortic endothelial cells (HAEC) may be cultured on fibronectin-coated coverslips (fibronectin may be obtained from Sigma, St. Louis, Mo.) according to the procedures of Jaffe et al., J. Clin. Invest. 52:2745-2756, 1973. Briefly, human endothelial cells may be maintained in EGM (endothelial cell growth medium; Clonetics, San Diego, Calif.) and used for experiments at passage 4. Confluent cultures of HAEC may be exposed to either a candidate modulating agent (final concentration 100 μg/ml EGM), or EGM alone for 1 hour. The cells are then be fixed for 30 minutes at 4° C. in 95% ethanol, followed by fixation in acetone for 1 minute at 4° C. (Furuse et al., J. Cell Biol. 123:1777-1788, 1993). After fixation, the cells may be probed with either mouse anti-VE-cadherin antibodies (Hemeris, Sassenage, France; diluted 1:250 in 0.1% dried skim milk powder dissolved in PBS), or rabbit anti-occludin antibodies (Zymed, South San Francisco, Calif.; diluted 1:300 in 0.1% dried skim milk powder dissolved in PBS) for 1 hour at 37° C. The cells may then be washed with 0.1% dried skim milk powder dissolved in PBS (three washes, 5 minutes/wash), and probed with secondary antibodies (donkey anti-mouse Cy3, or donkey anti-rabbit Cy5 diluted 1:250 in 0.1% dried skim milk powder dissolved in PBS; Jackson Immunoresearch Laboratories Inc., Westgrove, Pa.) for 1 hour at 37° C. The cells may then be washed again with in 0.1% dried skim milk powder dissolved in PBS and mounted in a solution composed of 50% glycerol and 50% PBS to which phenylenediamine (Sigma, St. Louis, Mo.) has been added to a final concentration of 1 mg/ml. The sample may then be analyzed using a Bio-Rad MRC 1000 confocal microscope with Laser Sharp software version 2.1T (Bio-Rad, Hercules, Calif.). In general, 0.1 mg/ml of modulating agent results in the appearance of intercellular gaps within the monolayer cultures and a decrease of at least 50% in the surface expression of occludin and VE-cadherin, as compared to monolayer cultures that were not exposed to the modulating agent.
Human aortic endothelial cells (HAEC) were cultured on fibronectin (Sigma, St. Louis, Mo.) according to the procedures of Jaffe et al., J. Clin. Invest. 52:2745-2756, 1973. Cells were maintained in EGM (endothelial cell growth medium; Clonetics, San Diego, Calif.) and used for experiments at passage 4.
HAEC were cultured on fibronectin-coated coverslips. Confluent cultures of HAEC were exposed to linear peptides (final concentration 100 μg/ml EGM), or EGM alone for 1 hour. […] The samples were analyzed using a Bio-Rad MRC 1000 confocal microscope with Laser Sharp software version 2.1T (Bio-Rad, Hercules, Calif.). […]

[3] = 100 μg/ml peptide, compared to untreated cells

Substance	mean electrical resistance across MDCK cell monolayers [1]	optical densities of dimethylformamide dye extracts from excised injection sites (Adult rats; 100 μg/ml peptide subdermal, OD at 620 nm, compared with PBS and the N-acetyl/C-amide peptides, FIG. 6, FIG. 8)	accumulation of Evans blue at the injection sites (visual) (Adult rats; 100 μl subdermal injection of 100 μg/ml peptide in PBS, Evans blue i.v. 15 min later, compared with PBS, acetyl-QYLYHYCVVD-NH2 and H-QYLYHYCVVD-NH2 sites, FIG. 5)	formation of tight junctions in epithelial cells [1]	formation of tight junctions in epithelial cells ([1]; listed as H-QYLYHYCVVD-COOH)	adhesion between endothelial cells (retraction of cells from one another) ([2]; 100 μg/ml peptide in EGM, vs untreated, FIG. 4B)	formation of cobblestone-like monolayers ([2]; 100 μg/ml peptide)	surface expression of VE-cadherin [2, 3]	surface expression of occludin [2, 3]	formation of tight junctions in epithelial cells ([1]; listed as N-Ac-CLYHYC-NH2)
H-QYLYHYCVVD-NH2 [Peptide 2]	reduce the electrical resistance	–	–	–	–	–	–	–	–	–
H-QYLYHYCVVD-OH [Peptide 3]	increased the electrical resistance	more dye was extracted	more blue dye has accumulated	stimulate the formation of tight junctions in epithelial cells	stimulating the formation of tight junctions in epithelial cells	adhesion is decreased	do not form cobblestone-like monolayers	greatly reduced	greatly reduced	–
acetyl-CLYHYC-NH2 (Ac-CLYHYC-NH2; also: cyclic, kind not given here) [Peptide 4]	increased the electrical resistance	–	–	stimulate the formation of tight junctions in epithelial cells	–	–	–	–	–	stimulating the formation of tight junctions in epithelial cells

Reference: patent US6797807B1, “Compounds and methods for cancer therapy” (Adherex Technologies, Inc., priority 1997, dated 2004)
